Test results reported in patent US8282688B2, “Laccase mediators and methods of use” (Danisco US Inc., priority 2006, dated 2012).
Where “and” joins values, the source holds several entries; their conditions need not be identical. Identical values can stand only once.

Key:
Format in all cases: biochemical
[1] = tested on: Thielavia sp. laccase (Ecostone LCC10); assay: Bleaching of solubilized indigo, Thielavia sp. laccase with mediators (Example 2); conditions: for ΔA600 (change in absorbance at 600 nm relative to control): laccase 10 ppm, pH 5, 50° C., 2 hours, n = 2
Protocol: An assay for the bleaching of the solubilized indigo substrate by laccase/mediator combinations was performed in a 96-well microtitre plate as follows
(§1) A saturated solution of indigo in N-methylpyrrolidone (NMP) was prepared by stirring indigo (30 mg) in NMP (10 ml) at room temperature for 5 hours. The NMP solution was diluted 10-fold into an aqueous buffer solution resulting in a blue solution. For example, dilution into 50 mM sodium acetate buffer at pH 5, or 50 mM sodium phosphate buffer at pH 7. Solutions were shaken well immediately before use.
(§2) The assay for the bleaching of the solubilized indigo substrate was performed in a 96-well microtitre plate whereby each well received the soluble indigo solution in 50 mM sodium acetate buffer at pH 5 (180 uL), laccase (10 ppm enzyme) and mediator solution (from a 20 mM stock solution in methanol). The total volume of each well was adjusted to 200 uL with deionzed water. A control containing laccase only was run in duplicate. The plate was sealed and incubated at 50° C. for 2 hours at 800 rpm on a heated agitator (Thermomixer, Eppendorf). Following this period, the plates were unsealed and a solution of ascorbic acid (20 uL of a 10% aqueous solution) added to each well in order to reduce the oxidized forms of the mediators. The extent of indigo bleaching was then assessed by determining the absorbance for each well at 600 nm using a microtitre plate reader. The lower the absorbance reading, the greater the extent of indigo bleaching.

[2] = tested on: C. unicolor laccase; assay: Bleaching of denim swatches with C. unicolor laccase (Example 4); design: key to ΔL Denim swatch Frontside / Δb Denim swatch Frontside / ΔL Denim swatch Backside / Δb Denim swatch Backside / Δa Denim swatch Backside / Δa Denim swatch Frontside: difference between initial and final CIE L*a*b* values; key to ΔE (total color difference) Denim swatch Backside / ΔE (total color difference) Denim swatch Frontside: ΔE = (ΔL²+Δa²+Δb²)^1/2 from CIE L*a*b* before/after bleaching
Protocol: Denim legs (made out of sulfur bottom/indigo dyed denim fabric from Cone Mill, style number 1662P) were pretreated with IndiAge® 2XL at a dose of 1 gram per liter in a 50 lb lab scale tumbling washer. The liquor ratio was 6 to 1 (5 kg substrate in 30 liters of water) and the treatment was performed at 55° C. at pH 4.5 for 1 hour. A warm rinse followed the cellulase treatment, after which the fabric was dried in a tumble dryer. A punch press was used to cut ⅝ inch denim disks from IndiAge® 2XL pretreated denim legs. Each denim disk is pre read with a Chroma Meter CR-200 by Minolta in order to determine the CIE L*a*b* values of both the front and backside of the fabric disk.
One denim disk is placed in each well of two duplicate 12 well micro-titer plates. Each well received C. unicolor laccase (20 uL of 1/20 dilution, approx. 20 ppm), mediator (200, 100, 50 or 20 uL of a 20 mM stock solution in methanol) and 50 mM potassium phosphate buffer, pH 6 for a total volume of 2 mL/well. The mediators were methyl syringate (MS), 4-cyano-2,6-dimethoxyphenol (SN) and 3,4,5-trimethoxyphenol (TMP). The plates were sealed and incubated at 50° C. for 2 hours at 150 rpm in a standard incubator. Following this period, the swatches were removed from the plates and carefully placed on a filter paper in a Buchner funnel and washed with copious amounts of water, followed by drying of the residual water under high vacuum overnight. The swatches were then re-read with the chromometer in order to determine the CIE L*a*b* values of both the front and backside of the disk following bleaching. The total color difference (ΔE) is calculated from the difference between the initial and final CIE L*a*b* values according to the formula ΔE=(ΔL^2+Δa^2+Δb^2)^1/2 The total color differences (ΔE) as a function of mediator concentration are plotted in FIGS. 5 and 6.

[3] = tested on: Thielavia laccase (Ecostone LCC10); assay: Soluble indigo bleaching at two pH values, Thielavia laccase (Example 3)
Protocol: as §1, §2
(§3) Laccases derived from Myceliophtora (Denilite® II, Novozymes, Bagsvaerd, Denmark), Thielavia (Ecostone LCC10, AB enzymes, Darmstadt, Germany) and Cerrena sp. were assessed for their ability to bleach solubilized indigo in conjunction with low molecular weight mediators at two pH values.
(§4) Bleaching of solubilized indigo in 96-well microtitre plates was performed as described in Example 1, using 3 different laccases at pH values of 5 and 7.

[4] = tested on: Myceliophtora laccase (Denilite II); assay: Soluble indigo bleaching at two pH values, Myceliophtora laccase (Example 3)
Protocol: as §1, §2, §3, §4

[5] = tested on: Cerrena sp. laccase; assay: Soluble indigo bleaching at two pH values, Cerrena sp. laccase (Example 3)
Protocol: as §1, §2, §3, §4

[6] = mediator 50 mM Concentration (head)
[7] = mediator 500 mM Concentration (head)
[8] = mediator 200 uM, laccase 20 ppm, pH 6, 50° C., 2 hours
[9] = mediator 500 uM, laccase 20 ppm, pH 6, 50° C., 2 hours
[10] = mediator 1000 uM, laccase 20 ppm, pH 6, 50° C., 2 hours
[11] = lower mediator concentration of 50 uM

SMILES	ΔA600 (change in absorbance at 600 nm relative to control) [1, 6]	ΔA600 (change in absorbance at 600 nm relative to control) [1, 7]	ΔA600 Thielavia ([3]; pH 5, mediator 250 uM)	ΔA600 Thielavia ([3]; pH 7, mediator 250 uM)	ΔA600 Myceliophtora ([4]; pH 5, mediator 250 uM)	ΔA600 Myceliophtora ([4]; pH 7, mediator 250 uM)	ΔA600 Cerrena ([5]; pH 5, mediator 250 uM)	ΔA600 Cerrena ([5]; pH 7, mediator 250 uM)	also measured
CNC(=O)c1cc(OC)c(O)c(OC)c1 [MSA, 4-(N-methylcarboxamido)-2,6-dimethoxyphenol]	0.103	0.181							
O=C(O)CCCN1c2ccccc2Sc2ccccc21 [PTP, 10-(carboxypropyl)-phenothiazine]	0.132	0.044							
COc1cc(O)cc(OC)c1OC [TMP, 3,4,5-trimethoxyphenol, reference compound]									effectiveness as mediator for denim swatch bleaching ([2]; C. unicolor laccase 20 ppm, 200-2000 uM mediator): not an effective mediator; ΔE (total color difference) Denim swatch Backside [2, 8]: 0.35 and 0.57; ΔE (total color difference) Denim swatch Frontside [2, 8]: 0.96 and 0.77; Δa Denim swatch Frontside [2, 8]: 0.29 and 0.33; ΔE (total color difference) Denim swatch Backside [2, 9]: 0.51 and 0.30; ΔE (total color difference) Denim swatch Frontside [2, 9]: 0.64 and 0.63; ΔL Denim swatch Frontside [2, 9]: −0.61; ΔE (total color difference) Denim swatch Backside [2, 10]: 0.45 and 0.51; ΔE (total color difference) Denim swatch Frontside [2, 10]: 0.51 and 0.46; Δa Denim swatch Backside [2, 10]: 0.22 and 0.12; ΔE (total color difference) Denim swatch Backside ([2]; mediator 2000 uM, laccase 20 ppm, pH 6, 50° C., 2 hours): 0.34
COc1cc(C=O)cc(OC)c1O [Syringaldehyde, syringaldehyde]	0.092	0.132							
COc1cc(C(=O)O)cc(OC)c1O [Syringic acid, syringic acid]	0.005	0.024							effectiveness as mediator for indigo bleaching [1, 11]: no more effectively than the control condition
CCn1c(=NN=c2sc3cc(S(=O)(=O)O)ccc3n2CC)sc2cc(S(=O)(=O)O)ccc21 [ABTS]	0.174	0.235	0.234	0.145	0.267	0.155	0.329	0.215	effectiveness as mediator for indigo bleaching [1, 11]: most effective mediator; effectiveness as mediator for indigo bleaching ([1]; mediator concentration of 500 uM): most effective mediator
COc1cc(C=CC(=O)O)cc(OC)c1O (stereo in doubt) [Sinapinic acid, sinapinic acid]			0.068	0.112	0.157	0.204	0.240	0.257	
COC(=O)c1cc(OC)c(OC(C)=O)c(OC)c1 [AMS, methyl 4-acetyl syringate]			0.100	0.087	0.117	0.078	0.028	0.077	
